In paper PMC6079014, “Calcium is an essential cofactor for metal efflux by the ferroportin transporter family” (Nature Communications, 2018):

Legend:
Fpn-C2-E219A = molecular target: T1, Fpn-C2-E219A (Mus musculus, UniProt Q9JHI9, DEL251-290/DEL401-449/E219A); test: Isothermal titration calorimetry, Fpn-C2-E219A mutant; format: binding
T1 construct: generated from full-length mouse Fpn (UniProt: Q9JHI9); GFP (C); made in house; host or cells: Sf9 insect cells (baculovirus)
T1 sequence (Q9JHI9 with tags, fused parts or gaps E219A/DEL251-290/DEL401-449): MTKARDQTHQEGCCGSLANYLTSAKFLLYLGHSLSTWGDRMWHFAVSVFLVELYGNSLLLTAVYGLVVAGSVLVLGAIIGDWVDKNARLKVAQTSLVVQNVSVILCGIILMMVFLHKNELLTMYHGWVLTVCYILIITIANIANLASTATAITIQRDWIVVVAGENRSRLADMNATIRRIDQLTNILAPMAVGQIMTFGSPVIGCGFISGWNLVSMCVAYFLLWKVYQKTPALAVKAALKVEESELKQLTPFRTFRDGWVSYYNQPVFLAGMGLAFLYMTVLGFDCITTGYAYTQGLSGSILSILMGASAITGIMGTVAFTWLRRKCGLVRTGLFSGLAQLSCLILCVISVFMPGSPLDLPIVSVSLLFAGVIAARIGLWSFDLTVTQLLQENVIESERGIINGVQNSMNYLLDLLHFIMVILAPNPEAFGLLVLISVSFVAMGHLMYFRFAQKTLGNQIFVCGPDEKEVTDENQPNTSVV
Source text: To obtain a purified mammalian Fpn protein conducive for biophysical studies, we generated a protein construct with an increased thermal stability (Deshpande et al., 2018). In brief, the construct (Fpn-C2) was generated from full-length mouse Fpn (UniProt: Q9JHI9 [https://www.uniprot.org/uniprot/Q9JHI9]) by deleting two-loop regions (residues 251–290 and 401–449), followed by an overlapping PCR incorporating the E219A mutation to generate Fpn-C2-E219A. […]
For Fpn-C2 and Fpn-C2-E219A purification (Deshpande et al., 2018), Sf9 cells were thawed at room temperature with the addition of 2 μl Benzonase (250 units/μL, Sigma-Aldrich), 1 mM MgSO4, 0.2 mM PMSF, and lysed by a single pass through cooled EmulsiFlex-C3 homogenizer (Avestin). […] The SEC eluted protein was concentrated to ~10 mg/ml as determined by the BCA assay (Thermo Fisher Scientific) method and stored at −80 °C until further use. […]
In each experiment, the protein solution was loaded into the sample cell, and the ligand solution was loaded in the syringe. […] To obtain the effective heat of binding, the heat of dilution, measured by injecting the ligand solution alone into buffer, was subtracted prior to data analysis. […]

human Fpn = molecular target: T2, human Fpn (Homo sapiens, UniProt Q9NP59); test: 55Fe efflux from HEK293T cells with tet-inducible human Fpn; format: cell-based
T2 construct: expressed in transfected cells; host or cells: Xenopus laevis oocytes injected with Fpn RNA
T2 sequence (Q9NP59 1-571): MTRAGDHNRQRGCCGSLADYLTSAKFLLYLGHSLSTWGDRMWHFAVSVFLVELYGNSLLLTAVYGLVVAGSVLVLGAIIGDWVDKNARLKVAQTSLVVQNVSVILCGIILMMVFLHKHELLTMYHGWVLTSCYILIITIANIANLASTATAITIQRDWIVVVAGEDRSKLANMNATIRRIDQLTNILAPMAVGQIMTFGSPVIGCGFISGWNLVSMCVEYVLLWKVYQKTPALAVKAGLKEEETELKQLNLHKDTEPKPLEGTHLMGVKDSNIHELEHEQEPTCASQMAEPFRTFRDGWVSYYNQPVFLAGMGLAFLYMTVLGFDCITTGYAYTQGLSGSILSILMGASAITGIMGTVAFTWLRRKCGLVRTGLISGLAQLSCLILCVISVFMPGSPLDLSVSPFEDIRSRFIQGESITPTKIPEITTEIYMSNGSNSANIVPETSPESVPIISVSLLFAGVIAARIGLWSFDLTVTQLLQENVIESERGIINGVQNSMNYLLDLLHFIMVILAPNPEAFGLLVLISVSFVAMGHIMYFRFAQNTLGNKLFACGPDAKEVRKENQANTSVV
Method: We measured ^55Fe efflux from HEK293 cells (E. Nemeth, UCLA) that were stably transfected with a tet-inducible human Fpn construct in pcDNA5/FRT/TO vector (Invitrogen) as described. Fpn expression was induced by adding 0.5 µg/ml doxycycline; data represent % efflux in induced minus uninduced cells. Fpn expression in mammalian cells was confirmed by visualizing GFP fluorescence, which was unaffected by removal of extracellular calcium.

## [Ca+2] [Ca^2+, calcium]
Fpn-C2-E219A
  Binding to Fpn-C2-E219A by ITC (in words): no binding
Human Fpn; HEK293T cells, 1 mM Ca2+, over 6 h (P = 0.002) and 24 h (P < 0.001), not at earlier time points
  Effect of extracellular Ca2+ on 55Fe efflux: significantly activated
Human Fpn; HEK cells, 0 Ca2+ + 1 mM EGTA vs 1 mM Ca2+
  Effect of removal of extracellular Ca2+ on Fpn-mediated 55Fe efflux: abolished
